Laboratory results: the kinase profiling compilation of Christmann-Franck et al. (2016)

Legend:
Assay in all cases: KINOMEscan competition binding
Conditions in all cases: compound 10.0 µM
MAPK8 (human) = MAPK8 (human) (UniProt P45983)
MUSK (human) = MUSK (human) (UniProt O15146)
ACVRL1 (human) = ACVRL1 (human) (UniProt P37023)
HIPK2 (human) = HIPK2 (human) (UniProt Q9H2X6)
MAP3K5 (human) = MAP3K5 (human) (UniProt Q99683)
MAPK9 (human) = MAPK9 (human) (UniProt P45984)
MAP2K4 (human) = MAP2K4 (human) (UniProt P45985)
CAMK1D (human) = CAMK1D (human) (UniProt Q8IU85)
ADCK3 (human) = ADCK3 (human) (UniProt Q8NI60)
PRKCQ (human) = PRKCQ (human) (UniProt Q04759)
TRPM6 (human) = TRPM6 (human) (UniProt Q9BX84)
PI4KB (human) = PI4KB (human) (UniProt Q9UBF8)
CLK4 (human) = CLK4 (human) (UniProt Q9HAZ1)
PHKG1 (human) = PHKG1 (human) (UniProt Q16816)
ZAP70 (human) = ZAP70 (human) (UniProt P43403)
STK17A (human) = STK17A (human) (UniProt Q9UEE5)
SRC (human) = SRC (human) (UniProt P12931)
TTK (human) = TTK (human) (UniProt P33981)
PKN2 (human) = PKN2 (human) (UniProt Q16513)
PRKX (human) = PRKX (human) (UniProt P51817)
PIK3C2B (human) = PIK3C2B (human) (UniProt O00750)
PRKCH (human) = PRKCH (human) (UniProt P24723)
ROCK1 (human) = ROCK1 (human) (UniProt Q13464)
GRK1 (human) = GRK1 (human) (UniProt Q15835)
BTK (human) = BTK (human) (UniProt Q06187)
RET (human) = RET (human) (UniProt P07949)
AKT2 (human) = AKT2 (human) (UniProt P31751)
CLK1 (human) = CLK1 (human) (UniProt P49759)
FRK (human) = FRK (human) (UniProt P42685)
CAMK2A (human) = CAMK2A (human) (UniProt Q9UQM7)
[1] = test system: MET (human), P08581 [M1250T]
CAMK4 (human) = CAMK4 (human) (UniProt Q16566)
PRPF4B (human) = PRPF4B (human) (UniProt Q13523)
MAPK10 (human) = MAPK10 (human) (UniProt P53779)
EPHB6 (human) = EPHB6 (human) (UniProt O15197)
TIE1 (human) = TIE1 (human) (UniProt P35590)
PAK6 (human) = PAK6 (human) (UniProt Q9NQU5)
STK11 (human) = STK11 (human) (UniProt Q15831)
[2] = test system: EGFR (human), P00533 [G719C]
MAPK4 (human) = MAPK4 (human) (UniProt P31152)
CDKL5 (human) = CDKL5 (human) (UniProt O76039)

Sequence of MUSK (human) (O15146 whole entry, looked up): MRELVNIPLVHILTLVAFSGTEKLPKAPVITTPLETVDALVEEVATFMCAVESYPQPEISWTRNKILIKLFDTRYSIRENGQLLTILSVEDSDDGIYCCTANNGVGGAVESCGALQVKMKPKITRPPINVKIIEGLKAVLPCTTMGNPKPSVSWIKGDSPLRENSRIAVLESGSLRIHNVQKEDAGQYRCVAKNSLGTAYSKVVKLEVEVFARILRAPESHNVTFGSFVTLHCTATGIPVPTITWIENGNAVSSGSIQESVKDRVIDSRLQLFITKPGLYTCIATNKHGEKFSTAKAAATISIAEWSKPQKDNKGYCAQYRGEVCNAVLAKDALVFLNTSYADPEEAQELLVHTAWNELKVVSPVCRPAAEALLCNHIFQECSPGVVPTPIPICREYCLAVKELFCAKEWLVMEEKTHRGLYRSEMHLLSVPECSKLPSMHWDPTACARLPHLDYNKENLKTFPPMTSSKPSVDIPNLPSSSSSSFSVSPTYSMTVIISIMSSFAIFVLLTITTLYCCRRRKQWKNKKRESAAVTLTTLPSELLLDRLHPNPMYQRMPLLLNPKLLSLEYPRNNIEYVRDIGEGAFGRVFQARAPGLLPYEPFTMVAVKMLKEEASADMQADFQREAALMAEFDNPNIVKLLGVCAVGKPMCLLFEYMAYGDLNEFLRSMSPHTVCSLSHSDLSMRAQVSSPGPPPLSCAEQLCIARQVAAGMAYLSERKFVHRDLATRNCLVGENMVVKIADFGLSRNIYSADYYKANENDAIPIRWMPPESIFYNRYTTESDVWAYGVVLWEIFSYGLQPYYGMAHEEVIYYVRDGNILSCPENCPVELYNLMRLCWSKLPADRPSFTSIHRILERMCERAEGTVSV
Sequence of RET (human) (P07949 whole entry, looked up): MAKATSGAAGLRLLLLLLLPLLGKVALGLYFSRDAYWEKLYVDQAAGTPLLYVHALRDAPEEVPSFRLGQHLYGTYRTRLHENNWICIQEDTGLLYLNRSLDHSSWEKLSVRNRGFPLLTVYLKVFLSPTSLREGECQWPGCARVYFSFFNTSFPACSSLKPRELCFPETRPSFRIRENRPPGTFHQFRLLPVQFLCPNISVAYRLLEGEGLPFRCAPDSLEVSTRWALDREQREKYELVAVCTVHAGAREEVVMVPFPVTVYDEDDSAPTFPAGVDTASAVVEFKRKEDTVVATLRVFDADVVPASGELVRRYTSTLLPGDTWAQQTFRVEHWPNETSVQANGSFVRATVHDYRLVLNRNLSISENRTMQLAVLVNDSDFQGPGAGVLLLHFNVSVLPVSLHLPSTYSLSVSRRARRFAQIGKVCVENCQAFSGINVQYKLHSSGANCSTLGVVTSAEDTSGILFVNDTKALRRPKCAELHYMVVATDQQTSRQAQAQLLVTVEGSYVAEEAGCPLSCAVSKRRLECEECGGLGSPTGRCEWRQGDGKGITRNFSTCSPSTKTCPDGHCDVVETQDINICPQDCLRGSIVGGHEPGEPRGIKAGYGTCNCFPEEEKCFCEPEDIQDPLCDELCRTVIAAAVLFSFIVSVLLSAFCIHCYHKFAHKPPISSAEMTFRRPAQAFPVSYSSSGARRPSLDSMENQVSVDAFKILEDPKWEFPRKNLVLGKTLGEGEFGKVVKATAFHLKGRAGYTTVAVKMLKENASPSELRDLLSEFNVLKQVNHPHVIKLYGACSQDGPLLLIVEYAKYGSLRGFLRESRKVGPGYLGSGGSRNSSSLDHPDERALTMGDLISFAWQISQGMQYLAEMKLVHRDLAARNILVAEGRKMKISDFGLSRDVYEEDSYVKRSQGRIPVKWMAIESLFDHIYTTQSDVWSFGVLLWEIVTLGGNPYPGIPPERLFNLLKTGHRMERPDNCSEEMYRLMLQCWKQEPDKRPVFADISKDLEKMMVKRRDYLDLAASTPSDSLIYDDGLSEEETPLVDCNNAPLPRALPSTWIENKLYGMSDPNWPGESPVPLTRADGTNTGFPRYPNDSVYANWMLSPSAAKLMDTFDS
Sequence of CLK4 (human) (Q9HAZ1 whole entry, looked up): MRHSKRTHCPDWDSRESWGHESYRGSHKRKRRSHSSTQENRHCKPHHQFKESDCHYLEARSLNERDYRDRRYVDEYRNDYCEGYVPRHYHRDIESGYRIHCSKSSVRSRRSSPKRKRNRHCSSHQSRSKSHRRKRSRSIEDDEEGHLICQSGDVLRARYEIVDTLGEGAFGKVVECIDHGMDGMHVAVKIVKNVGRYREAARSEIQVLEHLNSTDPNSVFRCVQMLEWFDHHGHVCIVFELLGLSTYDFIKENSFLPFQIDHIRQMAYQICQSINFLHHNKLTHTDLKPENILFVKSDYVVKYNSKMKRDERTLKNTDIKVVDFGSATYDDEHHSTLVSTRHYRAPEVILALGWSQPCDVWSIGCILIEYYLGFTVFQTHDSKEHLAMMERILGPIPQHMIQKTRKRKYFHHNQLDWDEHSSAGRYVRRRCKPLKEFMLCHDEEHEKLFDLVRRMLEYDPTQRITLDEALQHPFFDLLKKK
Sequence of PIK3C2B (human) (O00750 whole entry, looked up): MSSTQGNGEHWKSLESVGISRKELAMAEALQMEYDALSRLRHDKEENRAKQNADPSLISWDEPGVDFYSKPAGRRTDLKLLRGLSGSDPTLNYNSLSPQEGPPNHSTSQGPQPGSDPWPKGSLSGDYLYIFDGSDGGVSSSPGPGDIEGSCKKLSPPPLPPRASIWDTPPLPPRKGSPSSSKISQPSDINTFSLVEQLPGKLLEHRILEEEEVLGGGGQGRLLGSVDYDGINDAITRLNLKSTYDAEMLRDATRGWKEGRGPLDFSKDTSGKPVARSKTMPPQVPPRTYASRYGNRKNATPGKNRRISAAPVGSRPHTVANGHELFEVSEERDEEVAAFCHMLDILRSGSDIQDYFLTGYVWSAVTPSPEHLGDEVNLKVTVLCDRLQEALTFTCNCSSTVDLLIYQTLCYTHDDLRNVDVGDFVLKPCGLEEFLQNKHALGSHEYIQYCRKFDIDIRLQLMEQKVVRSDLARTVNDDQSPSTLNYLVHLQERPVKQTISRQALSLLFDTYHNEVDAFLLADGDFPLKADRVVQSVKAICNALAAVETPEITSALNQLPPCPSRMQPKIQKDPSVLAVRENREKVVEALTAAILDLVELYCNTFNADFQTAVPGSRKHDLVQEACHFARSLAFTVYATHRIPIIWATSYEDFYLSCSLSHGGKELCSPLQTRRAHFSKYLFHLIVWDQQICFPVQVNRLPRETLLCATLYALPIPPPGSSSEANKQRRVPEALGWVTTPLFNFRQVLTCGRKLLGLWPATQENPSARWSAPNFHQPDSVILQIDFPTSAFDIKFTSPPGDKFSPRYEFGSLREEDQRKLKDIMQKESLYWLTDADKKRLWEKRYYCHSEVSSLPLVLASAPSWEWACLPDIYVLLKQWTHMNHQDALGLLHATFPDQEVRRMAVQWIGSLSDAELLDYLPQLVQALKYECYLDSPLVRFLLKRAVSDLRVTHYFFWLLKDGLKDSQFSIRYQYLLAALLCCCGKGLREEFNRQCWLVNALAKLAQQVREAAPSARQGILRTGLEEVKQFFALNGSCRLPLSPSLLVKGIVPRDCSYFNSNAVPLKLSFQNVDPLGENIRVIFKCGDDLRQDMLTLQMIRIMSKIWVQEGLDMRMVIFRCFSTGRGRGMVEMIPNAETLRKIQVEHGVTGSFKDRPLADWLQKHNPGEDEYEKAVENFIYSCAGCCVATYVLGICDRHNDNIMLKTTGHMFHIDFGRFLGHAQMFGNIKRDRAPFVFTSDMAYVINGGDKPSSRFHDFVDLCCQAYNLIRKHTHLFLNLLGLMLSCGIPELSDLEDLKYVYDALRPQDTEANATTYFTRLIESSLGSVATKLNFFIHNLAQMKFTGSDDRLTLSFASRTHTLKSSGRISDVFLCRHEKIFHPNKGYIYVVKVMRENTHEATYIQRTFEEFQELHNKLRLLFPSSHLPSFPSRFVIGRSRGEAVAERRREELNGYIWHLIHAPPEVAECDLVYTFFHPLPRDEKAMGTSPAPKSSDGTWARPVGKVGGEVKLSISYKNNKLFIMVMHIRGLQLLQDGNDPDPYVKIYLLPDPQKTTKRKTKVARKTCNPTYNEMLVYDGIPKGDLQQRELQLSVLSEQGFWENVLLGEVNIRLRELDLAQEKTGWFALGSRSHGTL
Sequence of PI4KB (human) (Q9UBF8 whole entry, looked up): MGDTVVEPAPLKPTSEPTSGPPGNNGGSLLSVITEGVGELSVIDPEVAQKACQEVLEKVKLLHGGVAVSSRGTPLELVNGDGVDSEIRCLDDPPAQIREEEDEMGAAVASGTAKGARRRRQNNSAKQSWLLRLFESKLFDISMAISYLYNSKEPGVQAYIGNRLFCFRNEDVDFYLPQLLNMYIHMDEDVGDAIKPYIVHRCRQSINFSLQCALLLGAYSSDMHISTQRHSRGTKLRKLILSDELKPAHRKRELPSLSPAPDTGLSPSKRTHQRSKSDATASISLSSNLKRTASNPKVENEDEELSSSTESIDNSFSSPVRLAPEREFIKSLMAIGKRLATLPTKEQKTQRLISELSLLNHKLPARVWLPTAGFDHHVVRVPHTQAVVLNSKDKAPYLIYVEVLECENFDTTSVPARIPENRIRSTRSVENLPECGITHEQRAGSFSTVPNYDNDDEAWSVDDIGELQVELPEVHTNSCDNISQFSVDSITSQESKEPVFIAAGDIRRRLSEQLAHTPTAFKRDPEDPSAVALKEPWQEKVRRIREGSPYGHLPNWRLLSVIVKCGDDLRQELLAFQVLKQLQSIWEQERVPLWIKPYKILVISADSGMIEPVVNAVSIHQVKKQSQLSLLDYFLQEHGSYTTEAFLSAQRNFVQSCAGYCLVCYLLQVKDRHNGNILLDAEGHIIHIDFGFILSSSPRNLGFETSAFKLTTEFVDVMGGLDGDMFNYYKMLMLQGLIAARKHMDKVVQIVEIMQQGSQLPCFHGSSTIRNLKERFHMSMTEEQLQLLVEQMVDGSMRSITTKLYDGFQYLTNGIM

Structure (SMILES): N#Cc1cc(-c2ccnc(Nc3ccc(-n4cnc(-c5cccnc5)n4)cc3)n2)cc(N2CCOCC2)c1
- kinase still bound, per cent of control (MAPK8 (human)): 0.05%
- kinase still bound, per cent of control (MUSK (human)): 92%
- kinase still bound, per cent of control (ACVRL1 (human)): 100%
- kinase still bound, per cent of control (HIPK2 (human)): 6.2%
- kinase still bound, per cent of control (MAP3K5 (human)): 100%
- kinase still bound, per cent of control (MAPK9 (human)): 0.1%
- kinase still bound, per cent of control (MAP2K4 (human)): 2.8%
- kinase still bound, per cent of control (CAMK1D (human)): 87%
- kinase still bound, per cent of control (ADCK3 (human)): 38%
- kinase still bound, per cent of control (PRKCQ (human)): 100%
- kinase still bound, per cent of control (TRPM6 (human)): 100%
- kinase still bound, per cent of control (PI4KB (human)): 100%
- kinase still bound, per cent of control (CLK4 (human)): 7.2%
- kinase still bound, per cent of control (PHKG1 (human)): 65%
- kinase still bound, per cent of control (ZAP70 (human)): 70%
- kinase still bound, per cent of control (STK17A (human)): 49%
- kinase still bound, per cent of control (SRC (human)): 38%
- kinase still bound, per cent of control (TTK (human)): 73%
- kinase still bound, per cent of control (PKN2 (human)): 44%
- kinase still bound, per cent of control (PRKX (human)): 55%
- kinase still bound, per cent of control (PIK3C2B (human)): 76%
- kinase still bound, per cent of control (PRKCH (human)): 83%
- kinase still bound, per cent of control (ROCK1 (human)): 52%
- kinase still bound, per cent of control (GRK1 (human)): 100%
- kinase still bound, per cent of control (BTK (human)): 74%
- kinase still bound, per cent of control (RET (human)): 100%
- kinase still bound, per cent of control (AKT2 (human)): 100%
- kinase still bound, per cent of control (CLK1 (human)): 2.5%
- kinase still bound, per cent of control (FRK (human)): 92%
- kinase still bound, per cent of control (CAMK2A (human)): 16%
- kinase still bound, per cent of control [1]: 23%
- kinase still bound, per cent of control (CAMK4 (human)): 100%
- kinase still bound, per cent of control (PRPF4B (human)): 57%
- kinase still bound, per cent of control (MAPK10 (human)): 0.15%
- kinase still bound, per cent of control (EPHB6 (human)): 14%
- kinase still bound, per cent of control (TIE1 (human)): 30%
- kinase still bound, per cent of control (PAK6 (human)): 58%
- kinase still bound, per cent of control (STK11 (human)): 11%
- kinase still bound, per cent of control [2]: 71%
- kinase still bound, per cent of control (MAPK4 (human)): 5%
- kinase still bound, per cent of control (CDKL5 (human)): 7%
